Source: US20250304585A1, “SULFAMATE BASED COVALENT LIGAND-DIRECTED RELEASE (COLDR) COMPOUNDS” (priority 2022, published 2025)
Where “and” joins values, the source holds several entries; their conditions need not be identical. Equal entries are not always repeated. Where two headings read alike, the source gives them in different places.

Tests used:
[1] = GSH reactivity (consumption) assay; format: physicochemical; details: for GSH reactivity relative to chloroacetamide (1a): model compounds; for covalent bond formation with GSH: assay conditions or up to 37° C. for 24 h
Mino cells [2] = experiment: Proteomic reactivity of model alkyne probes; format: cell-based; details: compared with 2b
BTK [3] = biological target: T1, BTK (Homo sapiens (Human), UniProt Q06187); experiment: BTK activity (autophosphorylation) in Mino cells; format: cell-based; details: anti-IgM activation, read-out: IC50 of BTK autophosphorylation inhibition
T1 sequence (Q06187 whole entry, looked up): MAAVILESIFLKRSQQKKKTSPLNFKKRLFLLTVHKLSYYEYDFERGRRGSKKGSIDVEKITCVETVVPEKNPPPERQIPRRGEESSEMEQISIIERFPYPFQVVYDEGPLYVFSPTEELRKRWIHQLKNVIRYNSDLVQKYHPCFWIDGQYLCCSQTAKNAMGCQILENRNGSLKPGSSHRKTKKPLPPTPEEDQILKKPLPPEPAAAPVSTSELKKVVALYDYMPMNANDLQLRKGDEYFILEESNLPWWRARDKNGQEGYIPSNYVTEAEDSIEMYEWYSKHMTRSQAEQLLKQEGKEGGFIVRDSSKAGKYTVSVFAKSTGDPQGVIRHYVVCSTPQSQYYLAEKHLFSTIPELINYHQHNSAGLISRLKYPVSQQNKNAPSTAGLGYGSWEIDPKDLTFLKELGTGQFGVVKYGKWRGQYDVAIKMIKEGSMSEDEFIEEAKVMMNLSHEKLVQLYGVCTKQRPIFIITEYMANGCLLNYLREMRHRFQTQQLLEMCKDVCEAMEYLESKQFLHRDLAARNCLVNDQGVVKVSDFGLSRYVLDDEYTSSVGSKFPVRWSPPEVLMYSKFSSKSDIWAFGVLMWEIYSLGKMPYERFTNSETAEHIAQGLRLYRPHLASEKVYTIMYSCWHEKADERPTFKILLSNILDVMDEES
Description: The cell pellets were subjected to immunoblotting and performed Western blots for p-BTK, BTK and β-actin.
Cell pellets were washed with ice-cold PBS and lysed using RIPA-buffer (Sigma, R0278). […] EZ-ECL Kit (Biological Industries, 20-500-1000) was used to detect HRP-activity.

BTK [4] = biological target: T1, BTK; experiment: In vitro kinase activity assay; format: biochemical
BTK [5] = biological target: BTK (Mus musculus (Mouse), UniProt P35991); experiment: BTK engagement in treated mice spleens; format: in vivo
Chain of BTK (Mus musculus (Mouse), UniProt P35991) (P35991 whole entry): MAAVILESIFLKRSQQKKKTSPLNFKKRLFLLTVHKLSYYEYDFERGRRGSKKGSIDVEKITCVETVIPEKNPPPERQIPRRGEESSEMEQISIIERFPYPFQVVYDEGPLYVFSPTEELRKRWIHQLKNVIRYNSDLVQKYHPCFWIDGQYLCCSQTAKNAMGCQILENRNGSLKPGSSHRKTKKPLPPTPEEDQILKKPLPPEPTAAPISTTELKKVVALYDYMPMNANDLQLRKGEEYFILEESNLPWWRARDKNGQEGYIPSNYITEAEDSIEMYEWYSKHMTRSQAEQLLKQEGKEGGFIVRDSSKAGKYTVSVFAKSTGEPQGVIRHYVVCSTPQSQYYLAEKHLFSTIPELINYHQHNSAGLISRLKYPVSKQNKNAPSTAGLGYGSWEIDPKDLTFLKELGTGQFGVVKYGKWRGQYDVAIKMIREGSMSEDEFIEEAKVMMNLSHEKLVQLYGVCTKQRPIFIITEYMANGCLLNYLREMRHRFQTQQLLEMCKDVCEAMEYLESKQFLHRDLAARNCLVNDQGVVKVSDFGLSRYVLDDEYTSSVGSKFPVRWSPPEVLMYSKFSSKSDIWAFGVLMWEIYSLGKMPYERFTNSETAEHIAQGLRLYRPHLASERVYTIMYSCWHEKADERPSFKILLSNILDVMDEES
Method: Lysates were diluted to 2 mg/ml, […] per sample, and incubated for 1 h in room temperature with […] probe 4 to label BTK. Lysates were then clicked to TAMRA-azide and imaged using ChemiDoc MP (546 nm) as described in the In-gel fluorescence protocol.

BTK C481S mutant = BTK C481S mutant (Homo sapiens (Human), UniProt Q06187, C481S); experiment: In vitro kinase activity assay with BTK C481S mutant; format: biochemical; details: for C481S/BTK: ratio of off-target/BTK IC50
Chain of BTK C481S mutant (Q06187 whole entry C481S, looked up): as the sequence (Q06187 whole entry, looked up) above, with C481S counted along it

[6] = test system: TCL1 adoptive transfer mouse model for CLL; experiment: TCL1 adoptive transfer mouse model for CLL; format: in vivo; details: after two weeks of treatment
Mino cells [7] = experiment: Competitive pull-down proteomics; format: cell-based; details: 1 μM, fold-enrichment>4 and p-value<0.05
EGFR = EGFR (Homo sapiens (Human), UniProt P00533); experiment: In vitro kinase activity assay with EGFR; format: biochemical; details: for EGFR/BTK: ratio of off-target/BTK IC50
Chain of EGFR (P00533 25-1210): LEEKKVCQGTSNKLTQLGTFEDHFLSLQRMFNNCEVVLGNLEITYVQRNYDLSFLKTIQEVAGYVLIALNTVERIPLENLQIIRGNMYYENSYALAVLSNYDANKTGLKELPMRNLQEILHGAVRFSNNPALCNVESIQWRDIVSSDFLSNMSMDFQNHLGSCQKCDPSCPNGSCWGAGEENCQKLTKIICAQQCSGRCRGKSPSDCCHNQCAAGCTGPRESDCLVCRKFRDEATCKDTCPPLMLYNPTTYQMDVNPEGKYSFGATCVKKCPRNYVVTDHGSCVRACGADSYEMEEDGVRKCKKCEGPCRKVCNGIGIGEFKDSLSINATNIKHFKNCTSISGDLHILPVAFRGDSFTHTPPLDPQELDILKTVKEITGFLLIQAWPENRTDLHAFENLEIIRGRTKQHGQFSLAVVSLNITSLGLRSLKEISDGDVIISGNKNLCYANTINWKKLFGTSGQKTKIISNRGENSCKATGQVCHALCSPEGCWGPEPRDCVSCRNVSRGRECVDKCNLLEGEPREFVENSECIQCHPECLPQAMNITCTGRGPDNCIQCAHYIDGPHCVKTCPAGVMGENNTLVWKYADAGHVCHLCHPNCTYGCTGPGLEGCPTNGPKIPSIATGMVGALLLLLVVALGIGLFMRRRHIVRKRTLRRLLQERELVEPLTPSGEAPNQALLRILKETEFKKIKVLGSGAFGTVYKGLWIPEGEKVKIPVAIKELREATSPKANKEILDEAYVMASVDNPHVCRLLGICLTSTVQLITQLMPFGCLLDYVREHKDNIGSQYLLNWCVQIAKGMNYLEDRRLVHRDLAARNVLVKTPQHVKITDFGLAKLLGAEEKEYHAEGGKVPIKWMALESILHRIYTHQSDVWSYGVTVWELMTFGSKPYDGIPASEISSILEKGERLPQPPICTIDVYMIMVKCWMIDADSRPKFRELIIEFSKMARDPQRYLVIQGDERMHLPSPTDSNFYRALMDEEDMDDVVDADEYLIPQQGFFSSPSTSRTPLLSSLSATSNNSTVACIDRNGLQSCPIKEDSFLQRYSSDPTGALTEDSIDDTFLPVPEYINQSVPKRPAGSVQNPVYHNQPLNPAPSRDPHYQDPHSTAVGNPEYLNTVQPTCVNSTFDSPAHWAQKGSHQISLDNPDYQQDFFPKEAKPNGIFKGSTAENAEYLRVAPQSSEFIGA

[8] = Metabolic stability with human liver microsomes; details: five-minute incubation
BTK kinase domain = BTK kinase domain (Homo sapiens (Human), UniProt Q06187); experiment: In-vitro labeling of recombinant BTK, intact protein LC/MS; format: binding; details: 2 μM BTK, 2 μM compound
Chain of BTK kinase domain (Q06187 402-655): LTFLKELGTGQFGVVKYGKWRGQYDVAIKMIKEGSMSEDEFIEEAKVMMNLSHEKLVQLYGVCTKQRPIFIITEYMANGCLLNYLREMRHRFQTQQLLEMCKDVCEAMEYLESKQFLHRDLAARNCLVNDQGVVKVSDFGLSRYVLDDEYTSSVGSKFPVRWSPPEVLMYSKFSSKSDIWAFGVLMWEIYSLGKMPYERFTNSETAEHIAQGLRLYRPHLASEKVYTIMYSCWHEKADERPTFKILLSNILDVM

[9] = 0.5 nM BTK, 5 μM ATP, read-out: BTK (IC50 μM)
[10] = BTK C481S mutant, read-out: C481S (IC50 μM)

For `CNS(=O)(=O)OCC(=O)NCc1ccccc1` [Compound 1d, 2-(benzylamino)-2-oxoethyl methylsulfamate], the “GSH reactivity relative to chloroacetamide (1a)” value [1] was “an order of magnitude less reactivity”.
For `O=C(COS(=O)(=O)NCc1ccccc1)NCc1ccccc1` [Compound 1e, 2-(benzylamino)-2-oxoethyl benzylsulfamate], the “GSH reactivity relative to chloroacetamide (1a)” value [1] was “an order of magnitude less reactivity”.
In the case of `CS(=O)(=O)CC(=O)NCc1ccccc1` [Compound 1i, N-benzyl-2-(methylsulfonyl)acetamide], the “covalent bond formation with GSH” value [1] is reported as “did not form a covalent bond with GSH”.
With `O=C(CS(=O)(=O)c1ccccc1)NCc1ccccc1` [Compound 1j, N-benzyl-2-(phenylsulfonyl)acetamide] the “covalent bond formation with GSH” value [1] was “did not form a covalent bond with GSH”.
For `C#Cc1ccc(NC(=O)COS(=O)(=O)NCc2ccccc2)cc1` [Compound 2a, 2-((4-ethynylphenyl)amino)-2-oxoethyl benzylsulfamate], the “proteomic reactivity (proteins enriched)” value (Mino cells [2]) was “enriching more proteins”.
For `C#Cc1ccc(NC(=O)CCl)cc1` [Compound 2c, 2-chloro-N-(4-ethynylphenyl)acetamide], the “proteomic reactivity (proteins enriched)” value (Mino cells [2]) was “enriching more proteins”.
In the case of `CS(=O)(=O)OCC(=O)N1CCC[C@@H](n2nc(-c3ccc(Oc4ccccc4)cc3)c3c(N)ncnc32)C1` [Compound 3b, (R)-2-(3-(4-amino-3-(4-phenoxyphenyl)-1H-pyrazolo[3,4-d]pyrimidin-1-yl)piperidin-1-yl)-2-oxoethyl methanesulfonate], the IC50 (BTK [3]) is reported as 0.006 µM and the IC50 (BTK [4]; [9]) is reported as 0.0464 µM and 0.046 µM.
With `CNS(=O)(=O)OCC(=O)N1CCC[C@@H](n2nc(-c3ccc(Oc4ccccc4)cc3)c3c(N)ncnc32)C1` [Compound 3c, (R)-2-(3-(4-amino-3-(4-phenoxyphenyl)-1H-pyrazolo[3,4-d]pyrimidin-1-yl)piperidin-1-yl)-2-oxoethyl methylsulfamate] the “BTK engagement in vivo (ibrutinib-alkyne probe labeling of spleen lysate)” value (BTK [5]) was “do not show probe labeling”, the IC50 (BTK C481S mutant) was 0.74 µM and the “fold potency lost against the C481S mutant” value (BTK C481S mutant) was 30-85 fold. The C481S/BTK (BTK C481S mutant) was 85.6, the spleen size [6] was “visually smaller” and the IC50 (BTK [3]) was 0.0036 µM. For the same compound, the “number of off-targets (competitive pull-down)” value (Mino cells [7]) was 6, the IC50 (BTK [4]; [9]) was 0.00864 µM and 0.0086 µM and the IC50 (BTK [4]; read-out: IC50 against BTK) was ~0.01 µM. The IC50 (EGFR) was 0.241 µM, the EGFR/BTK (EGFR) was 27.9 and the “remained intact after incubation with human liver microsomes” value [8] was “over 30%”.
In the case of `Nc1ncnc2c1c(-c1ccc(Oc3ccccc3)cc1)nn2[C@@H]1CCCN(C(=O)COS(=O)(=O)NCc2ccccc2)C1` [Compound 3d, (R)-2-(3-(4-amino-3-(4-phenoxyphenyl)-1H-pyrazolo[3,4-d]pyrimidin-1-yl)piperidin-1-yl)-2-oxoethyl benzylsulfamate], the “fold potency lost against the C481S mutant” value (BTK C481S mutant) is reported as 30-85 fold, the IC50 (BTK C481S mutant; [10]) is reported as 1.28 µM and the C481S/BTK (BTK C481S mutant) is reported as 52.8. For the same compound, the “number of off-targets (competitive pull-down)” value (Mino cells [7]) was 20, the IC50 (BTK [4]; [9]) was 0.0242 µM and 0.024 µM and the IC50 (BTK [4]; read-out: IC50 against BTK) was ~0.01 µM. For the same compound, the IC50 (EGFR) was 0.533 µM and the EGFR/BTK (EGFR) was 22.0.
With `Nc1ncnc2c1c(-c1ccc(Oc3ccccc3)cc1)nn2[C@@H]1CCCN(C(=O)COS(=O)(=O)Nc2ccccc2)C1` [Compound 3e, (R)-2-(3-(4-amino-3-(4-phenoxyphenyl)-1H-pyrazolo[3,4-d]pyrimidin-1-yl)piperidin-1-yl)-2-oxoethyl phenylsulfamate] the IC50 (BTK C481S mutant; [10]) was 0.275 µM, the C481S/BTK (BTK C481S mutant) was 2.9 and the “fold weaker IC50 than Ibrutinib” value (BTK [4]) was 10 fold. The IC50 (BTK [4]; [9]) was 0.0949 µM and 0.095 µM, the IC50 (BTK [4]; read-out: IC50 against BTK) was 0.1 µM and the IC50 (EGFR) was 1.96 µM. The EGFR/BTK (EGFR) was 20.6.
For `CS(=O)(=O)CC(=O)N1CCC[C@@H](n2nc(-c3ccc(Oc4ccccc4)cc3)c3c(N)ncnc32)C1` [Compound 3f, (R)-1-(3-(4-amino-3-(4-phenoxyphenyl)-1H-pyrazolo[3,4-d]pyrimidin-1-yl)piperidin-1-yl)-2-(methylsulfonyl)ethan-1-one], the “covalent labeling of BTK (LC/MS)” value (BTK kinase domain) was “failed to react covalently with BTK”.
With `Nc1ncnc2c1c(-c1ccc(Oc3ccccc3)cc1)nn2[C@@H]1CCCN(C(=O)CS(=O)(=O)c2ccccc2)C1` [Compound 3g, (R)-1-(3-(4-amino-3-(4-phenoxyphenyl)-1H-pyrazolo[3,4-d]pyrimidin-1-yl)piperidin-1-yl)-2-(phenylsulfonyl)ethan-1-one] the “covalent labeling of BTK (LC/MS)” value (BTK kinase domain) was “failed to react covalently with BTK”.
With `C#CCOS(=O)(=O)N1CCC[C@@H](n2nc(-c3ccc(Oc4ccccc4)cc3)c3c(N)ncnc32)C1` [Compound 3j, prop-2-yn-1-yl (R)-3-(4-amino-3-(4-phenoxyphenyl)-1H-pyrazolo[3,4-d]pyrimidin-1-yl)piperidine-1-sulfonate] the “reaction with GSH” value ([1]; same conditions as Ibrutinib) was “did not undergo any reaction with GSH”.
